Source: PubChem BioAssay (NCI)
Several values for one entry are separate records, joined by “and”; a condition that tells them apart may be missing. Equal entries are not always repeated.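 All cell lines were grown in 96-well plates and treated with compound for 48 hours. GI50 marks 50% less growth. TGI: total growth inhibition.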

What was measured:
Assay in all cases: NCI tumour cell line growth inhibition, 48 h
MDA-N = system: MDA-N
SNB-78 CNS = system: SNB-78 CNS
KM20L2 colon = system: KM20L2 colon
DMS 114 small cell lung = system: DMS 114 small cell lung
M19-MEL melanoma = system: M19-MEL melanoma
DLD-1 colon = system: DLD-1 colon
XF 498 CNS = system: XF 498 CNS
DMS 273 small cell lung = system: DMS 273 small cell lung
RXF-631 renal = system: RXF-631 renal
P388/ADR leukemia = system: P388/ADR leukemia

Row | SMILES | TGI (SNB-78 CNS) | TGI (KM20L2 colon) | TGI (DMS 114 small cell lung) | TGI (M19-MEL melanoma) | TGI (DLD-1 colon) | TGI (XF 498 CNS) | TGI (DMS 273 small cell lung) | TGI (RXF-631 renal) | other results
1 | COc1cc2oc(=O)cc(C)c2cc1[N+](=O)[O-] |  |  |  |  |  |  |  |  | TGI (MDA-N): 28.4 µM
2 | CN/N=C(/Cc1occc(=O)c1O)C(=O)Nc1ccc(C)c(C)c1 | > 100 µM | > 100 µM | > 100 µM | > 100 µM |  |  |  |  | 
3 | CC(=O)Nc1ccc(/C=C(\NC(=O)c2ccccc2)c2nc3ccc4c(c3[nH]2)C(=O)c2ccccc2C4=O)cc1 | > 100 µM | > 100 µM | > 100 µM | > 100 µM | > 100 µM | > 100 µM | > 100 µM |  | 
4 | COc1cccc(N2C(=O)c3c(c4[nH]c5ccccc5c4c4ccc(C(C)(C)C)cc34)C2=O)c1 | > 100 µM | > 100 µM | > 100 µM | > 100 µM | > 100 µM | > 100 µM | > 100 µM | > 100 µM | 
5 | COc1nc2c(OC)cccc2c(OC)c1C=O |  | > 100 µM | > 100 µM | > 100 µM |  | > 100 µM | > 100 µM |  | 
6 | C/C(=N\NC(=S)N1CCCCCC1)c1nccnc1C | > 100 µM | > 100 µM | 0.0275 µM | 15.6 µM | > 100 µM | 9.89 µM | 11.4 µM |  | 
7 | CCC/C(=N\NC(=S)N1CCN(c2ccccn2)CC1)c1ccccn1 | > 10 µM and 4.24 µM | 1.58 µM | 0.111 µM | 1.32 µM and 1.74 µM | 1.33 µM and 1.34 µM | 0.302 µM | 1.37 µM and 1.42 µM | > 10 µM and 2.34 µM | GI50 (SNB-78 CNS): 1.08 µM; GI50 (RXF-631 renal): 0.0384 µM; TGI (MDA-N): 1.92 µM; GI50 (M19-MEL melanoma): 0.0534 µM
8 | Cn1ncc(=S)[nH]c1=S | > 100 µM | > 100 µM | > 100 µM | > 100 µM | > 100 µM | > 100 µM | > 100 µM | > 100 µM | 
9 | O=C(Nc1ccc(Cl)c(C(F)(F)F)c1)C(=O)C(C(=O)/C=C/c1ccccc1)C1OC(=O)c2ccccc21 (stereo unspecified) | > 100 µM | > 100 µM | > 100 µM | > 100 µM | > 100 µM | > 100 µM | > 100 µM |  | 
10 | CC(=O)N1CCC2(C=Nc3ccccc32)CC1 | > 100 µM | > 100 µM | > 100 µM | > 100 µM | > 100 µM | > 100 µM | > 100 µM |  | 
11 | O=C(O)c1ccc(S(=O)(=O)c2ccccc2)c([N+](=O)[O-])c1 | > 100 µM | > 100 µM | > 100 µM | > 100 µM | > 100 µM |  | > 100 µM |  | 
12 | S=CN1CCCCC1 |  |  |  |  |  |  |  |  | TGI (MDA-N): > 100 µM
13 | COC(=O)C1(C)C=C(Nc2ccccc2)C(=O)N1c1ccccc1 (stereo unspecified) | > 100 µM |  | > 100 µM | > 100 µM | > 100 µM | > 100 µM |  | > 100 µM | 
14 | Cc1cc2c(cc1C)NC(=O)C(NC(=O)/C=C/c1ccccc1)C=N2 (stereo unspecified) | > 100 µM | > 100 µM | 31.1 µM | > 100 µM | > 100 µM | 99.6 µM | > 100 µM |  | 
15 | CC(=O)N(C)OC(=O)CC(=O)c1ccccc1 | > 100 µM | > 100 µM | > 100 µM | > 100 µM | > 100 µM | > 100 µM | > 100 µM | > 100 µM | 
16 | CN(N=O)C(=O)Nc1c[nH]c(=O)[nH]c1=O |  |  |  |  |  |  |  |  | TGI (MDA-N): > 100 µM
17 | COc1ccc(OCC(=O)O)c2c1CCC(C(C)C)C2=O (stereo unspecified) | > 100 µM | > 100 µM | > 100 µM | > 100 µM | > 100 µM |  | > 100 µM | > 100 µM | 
18 | CCOC(=N)CC(=O)Nc1ccc(Cl)cc1 | > 100 µM | > 100 µM |  | > 100 µM | > 100 µM | > 100 µM | > 100 µM |  | 
19 | CC(C)(C)[Si](C)(C)OCC1CCC(n2cnc3c(NC(=O)c4ccccc4)ncnc32)O1 (stereo unspecified) |  |  |  |  |  |  |  |  | TGI (MDA-N): 30.9 µM
20 | CCCCCCCCCCCCCS(=O)(=O)O | > 100 µM | > 100 µM | > 100 µM | > 100 µM | > 100 µM | > 100 µM |  | > 100 µM | 
21 | Cc1[nH]c(=O)[nH]c(=O)c1N(CCF)CCCl | 1000 µM and 1400 µM and 1210 µM | 455 µM and 1280 µM and 619 µM | 371 µM and 771 µM and 436 µM |  | 1250 µM and 1290 µM and 830 µM | 679 µM and 554 µM | 330 µM and 470 µM and 560 µM |  | GI50 (SNB-78 CNS): 435 µM; GI50 (DLD-1 colon): 303 µM and 472 µM; GI50 (KM20L2 colon): 194 µM and 429 µM; GI50 (XF 498 CNS): 334 µM and 198 µM; GI50 (DMS 273 small cell lung): 113 µM and 122 µM and 189 µM; TGI (MDA-N): 828 µM; GI50 (DMS 114 small cell lung): 148 µM; GI50 (P388/ADR leukemia): 242 µM; TGI (P388/ADR leukemia): 557 µM and 1110 µM
22 | O=C1c2ccccc2-c2c1c1ccccc1c(=O)n2Cc1ccco1 |  |  |  |  |  |  |  |  | TGI (MDA-N): > 100 µM
23 | CC(Cn1c2c3ccccc3ccc2c2oc(=O)c3ccccc3c21)N(C)C (stereo unspecified) | > 100 µM | > 100 µM | > 100 µM |  | > 100 µM | > 100 µM |  |  | 

Row | SMILES | TGI (SNB-78 CNS) | TGI (KM20L2 colon) | TGI (DMS 114 small cell lung) | TGI (M19-MEL melanoma) | TGI (DLD-1 colon) | TGI (XF 498 CNS) | TGI (DMS 273 small cell lung) | TGI (RXF-631 renal) | other results
24 | CCCN1C(=O)C/C(=C\C(C)=O)Nc2ccccc21 | > 100 µM |  | > 100 µM | > 100 µM | > 100 µM | > 100 µM | > 100 µM |  | 
25 | CCCc1c2c([nH]c(=O)c1C)C(=O)c1[nH]c(=O)c(C)c(CCC)c1C2=O | > 100 µM |  | 16.4 µM | 9.52 µM |  |  |  |  | 
26 | Cc1ccc(C)c(NC(=O)C(=O)C(c2cnc3ccc([N+](=O)[O-])cc3n2)[N+](=O)[O-])c1 (stereo unspecified) |  |  |  |  |  |  |  |  | TGI (MDA-N): > 100 µM
27 | COc1ccc2[nH]cc(CCNC(C)=O)c2c1 | > 100 µM | > 100 µM | > 100 µM | > 100 µM | > 100 µM | > 100 µM | > 100 µM |  | 
28 | CC1=CC=NN2C(=O)[C@H](C)C2C1 (stereo partly specified) | > 100 µM | > 100 µM | > 100 µM | > 100 µM | > 100 µM | > 100 µM | > 100 µM | > 100 µM | 
29 | CSC(=S)c1ccc(C(=S)SC)cc1 | > 100 µM | > 100 µM | > 100 µM | > 100 µM | > 100 µM | > 100 µM | > 100 µM | > 100 µM | 
30 | CC(O)C1OC(O)C2OC(C)(C)OC12 (stereo unspecified) |  |  |  |  |  |  |  |  | TGI (MDA-N): > 100 µM
31 | O=C1OC(c2ccco2)=N/C1=C\c1ccc(Cl)c(Cl)c1 |  |  |  |  |  |  |  |  | TGI (MDA-N): > 100 µM
32 | C/C(=N\N=C(N)N)C(CN(CC(C)C)CC(C)C)C(=O)Nc1ccc(C)cc1C (stereo unspecified) | > 100 µM | > 100 µM | > 100 µM | > 100 µM | > 100 µM | > 100 µM | > 100 µM | > 100 µM | 
33 | C/C(CN1C(=O)c2ccccc2C1=O)=N\NS(=O)(=O)c1cccc([N+](=O)[O-])c1 | > 100 µM | > 100 µM |  | > 100 µM | > 100 µM | > 100 µM | > 100 µM | > 100 µM | 
34 | CC(C)(C)NNC(=O)/C(=C/c1ccc(Oc2ccc(Cl)c(Cl)c2)cc1)NC(=O)c1ccccc1 | > 100 µM | > 100 µM | 35.9 µM | > 100 µM | > 100 µM | > 100 µM | 58.3 µM | > 100 µM | 
35 | Cc1ccc(NC(c2ccccc2)c2ccc3cccnc3c2O)cc1 (stereo unspecified) |  |  |  |  |  |  |  |  | TGI (MDA-N): 17.7 µM
36 | CC(C)(C)[OH+][O-].[O-]c1ccc(Cl)cc1C=Nc1ccc(Cl)cc1[O-].[O]=[V] |  |  |  |  |  |  |  |  | GI50 (MDA-N): 7.92 µM; TGI (MDA-N): > 100 µM
37 | O=C1C2C(C(=O)N1O)N(Cc1ccccc1)C(=O)N2Cc1ccccc1 (stereo unspecified) | > 100 µM | > 100 µM | > 100 µM | > 100 µM | > 100 µM | > 100 µM |  |  | 
38 | Cc1ccc(S(=O)(=O)N/N=C(\CCN2CCCC2)CC(c2ccccc2)c2c(O)c3ccccc3oc2=O)cc1 (stereo unspecified) | > 100 µM | > 100 µM |  | > 100 µM | > 100 µM | > 100 µM |  | > 100 µM | 
39 | COc1cc(Nc2cnc3cc(C(F)(F)F)ccc3n2)cc(OC)c1OC | > 100 µM | > 100 µM |  | > 100 µM | > 100 µM | > 100 µM | > 100 µM | > 100 µM | 
40 | COc1ccc(C(=O)/C=C/c2ccc(O)c(O)c2F)c(OC)c1 |  |  |  |  |  |  |  |  | GI50 (MDA-N): 2.38 µM; TGI (MDA-N): 27.2 µM and 25.8 µM
41 | Cc1ccc(NC(=O)c2[nH]c(=S)nc(N)c2-c2ccccc2C)cc1C | > 100 µM | > 100 µM | > 100 µM | > 100 µM | > 100 µM | > 100 µM | > 100 µM |  | 
42 | O=C(CCN1CCN(c2cccc(Cl)c2)CC1)N1CCc2c([nH]c3ccccc23)C1c1cccnc1 (stereo unspecified) | 9.97 µM | 20.1 µM |  | 26.4 µM | 25.4 µM | 9.57 µM | 19.1 µM | > 100 µM | GI50 (DLD-1 colon): 8.09 µM; GI50 (RXF-631 renal): 8.64 µM; GI50 (KM20L2 colon): 4.71 µM; GI50 (DMS 273 small cell lung): 6.6 µM
43 | CC(C)C(C(=O)O)N(CC1(O)OCC(O)C(O)C1O)N=O (stereo unspecified) | > 100 µM | > 100 µM | > 100 µM | > 100 µM | > 100 µM | > 100 µM | > 100 µM | > 100 µM | 
44 | O=C(Cc1nc2ccccc2s1)C(=O)Nc1ccc(Cl)cc1 | > 100 µM | > 100 µM | > 100 µM | > 100 µM | > 100 µM |  | > 100 µM |  | 
45 | COC(=O)c1c[nH]cc1CCc1c[nH]cc1C(=O)OC | > 100 µM | > 100 µM |  | > 100 µM |  | > 100 µM | > 100 µM |  | 
